In PubChem BioAssay (NCI):
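Briefly, cells in 96-well plates were exposed to five compound concentrations for 48 h, and endpoints were estimated by linear interpolation. GI50 is the concentration that inhibits growth by half. TGI: concentration producing complete growth inhibition.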

How the values were obtained:
Assay in all cases: inhibition of tumour cell growth, NCI panel, 48 h
[1] = tested on: A498 renal
[2] = tested on: RPMI-8226 leukemia
[3] = tested on: K-562 leukemia
[4] = tested on: HL-60(TB) leukemia
[5] = tested on: LOX IMVI melanoma
[6] = tested on: MALME-3M melanoma
[7] = tested on: UACC-62 melanoma
[8] = tested on: SNB-75 CNS
[9] = tested on: HCT-15 colon
[10] = tested on: SF-295 CNS
[11] = tested on: MDA-MB-231 breast
[12] = tested on: CAKI-1 renal
[13] = tested on: HOP-62 NSCLC
[14] = tested on: OVCAR-3 ovarian
[15] = tested on: UO-31 renal
[16] = tested on: IGROV1 ovarian
[17] = tested on: SK-OV-3 ovarian
[18] = tested on: SK-MEL-28 melanoma
[19] = tested on: COLO 205 colon
[20] = tested on: HCC-2998 colon
[21] = tested on: ACHN renal
[22] = tested on: HCT-116 colon
[23] = tested on: NCI-H23 lung
[24] = tested on: BT-549 breast
[25] = tested on: 786-0 renal
[26] = tested on: NCI-H226 lung
[27] = tested on: OVCAR-8 ovarian
[28] = tested on: KM12 colon
[29] = tested on: NCI-H460 lung
[30] = tested on: OVCAR-5 ovarian
[31] = tested on: DU-145 prostate
[32] = tested on: M14 melanoma
[33] = tested on: SK-MEL-2 melanoma
[34] = tested on: PC-3 prostate
[35] = tested on: TK-10 renal
[36] = tested on: RXF 393 renal
[37] = tested on: MDA-MB-435
[38] = tested on: NCI/ADR-RES ovarian
[39] = tested on: MCF7 breast
[40] = tested on: SF-539 CNS
[41] = tested on: SW-620 colon
[42] = tested on: T-47D breast
[43] = tested on: HS 578T breast
[44] = tested on: CCRF-CEM leukemia
[45] = tested on: SF-268 CNS
[46] = tested on: MOLT-4 leukemia
[47] = tested on: SNB-19 CNS
[48] = tested on: HOP-92 NSCLC
[49] = tested on: SN12C renal
[50] = tested on: A549 NSCLC
[51] = tested on: UACC-257 melanoma
[52] = tested on: SK-MEL-5 melanoma
[53] = tested on: SR leukemia
[54] = tested on: NCI-H522 lung

Question: With `Nc1nc(N)c2c(n1)NC(c1sc(Cl)nc1Cl)CC(c1ccc3c(c1)OCO3)=N2` (stereo not drawn) as the compound, how does the GI50 [1] read?
Answer: 2.3 µM

Question: What about the TGI [1] of the same compound?
Answer: 12 µM

Question: And the GI50 [2]?
Answer: 4.66 µM

Question: And the TGI [2]?
Answer: 25 µM

Question: What about the GI50 [3] of the same compound?
Answer: 0.542 µM

Question: And the TGI [3]?
Answer: > 100 µM

Question: What about the GI50 [4] of the same compound?
Answer: 3.61 µM

Question: And the TGI [4]?
Answer: 13.3 µM

Question: What about the GI50 [5] of the same compound?
Answer: 7.02 µM

Question: What about the TGI [5] of the same compound?
Answer: 25.5 µM

Question: And the GI50 [6]?
Answer: 14.3 µM

Question: And the TGI [6]?
Answer: 29.1 µM

Question: And the GI50 [7]?
Answer: 2.17 µM

Question: What about the TGI [7] of the same compound?
Answer: 18.9 µM

Question: What about the GI50 [8] of the same compound?
Answer: 1.39 µM

Question: And the TGI [8]?
Answer: 7.55 µM

Question: What about the GI50 [9] of the same compound?
Answer: 1.07 µM

Question: What about the TGI [9] of the same compound?
Answer: 20 µM

Question: What about the GI50 [10] of the same compound?
Answer: 2.21 µM

Question: What about the TGI [10] of the same compound?
Answer: 12.3 µM

Question: What about the GI50 [11] of the same compound?
Answer: 5.81 µM

Question: And the TGI [11]?
Answer: 22.3 µM

Question: And the GI50 [12]?
Answer: 3.17 µM

Question: What about the TGI [12] of the same compound?
Answer: > 100 µM

Question: And the GI50 [13]?
Answer: 5.32 µM

Question: And the TGI [13]?
Answer: 22.3 µM

Question: What about the GI50 [14] of the same compound?
Answer: 3.94 µM

Question: What about the TGI [14] of the same compound?
Answer: 17.4 µM

Question: What about the GI50 [15] of the same compound?
Answer: 4.52 µM

Question: And the TGI [15]?
Answer: 24.5 µM

Question: And the GI50 [16]?
Answer: 10.4 µM

Question: What about the TGI [16] of the same compound?
Answer: 47.6 µM

Question: What about the GI50 [17] of the same compound?
Answer: 2.78 µM

Question: And the TGI [17]?
Answer: 9.77 µM

Question: What about the GI50 [18] of the same compound?
Answer: 7.63 µM

Question: And the TGI [18]?
Answer: 29.2 µM

Question: What about the GI50 [19] of the same compound?
Answer: 3.48 µM

Question: What about the TGI [19] of the same compound?
Answer: 12.7 µM

Question: What about the GI50 [20] of the same compound?
Answer: 6.11 µM

Question: What about the TGI [20] of the same compound?
Answer: 20 µM

Question: And the GI50 [21]?
Answer: 5.86 µM

Question: And the TGI [21]?
Answer: 26.4 µM

Question: What about the GI50 [22] of the same compound?
Answer: 3.42 µM

Question: And the TGI [22]?
Answer: 16.2 µM

Question: What about the GI50 [23] of the same compound?
Answer: 8.87 µM

Question: What about the TGI [23] of the same compound?
Answer: 38.2 µM

Question: And the GI50 [24]?
Answer: 3.79 µM

Question: What about the TGI [24] of the same compound?
Answer: 18.9 µM

Question: What about the GI50 [25] of the same compound?
Answer: 5.43 µM

Question: What about the TGI [25] of the same compound?
Answer: 24.8 µM

Question: What about the GI50 [26] of the same compound?
Answer: 17.7 µM

Question: What about the TGI [26] of the same compound?
Answer: 55.7 µM

Question: And the GI50 [27]?
Answer: 4.86 µM

Question: And the TGI [27]?
Answer: 46.9 µM

Question: And the GI50 [28]?
Answer: 3.93 µM

Question: What about the TGI [28] of the same compound?
Answer: 21.4 µM

Question: What about the GI50 [29] of the same compound?
Answer: 3.99 µM

Question: And the TGI [29]?
Answer: 18.1 µM

Question: What about the GI50 [30] of the same compound?
Answer: 6.03 µM

Question: And the TGI [30]?
Answer: 33 µM

Question: What about the GI50 [31] of the same compound?
Answer: 8.45 µM

Question: What about the TGI [31] of the same compound?
Answer: 34.4 µM

Question: What about the GI50 [32] of the same compound?
Answer: 2.01 µM

Question: What about the TGI [32] of the same compound?
Answer: 13.7 µM

Question: What about the GI50 [33] of the same compound?
Answer: 5.19 µM

Question: And the TGI [33]?
Answer: 19 µM

Question: What about the GI50 [34] of the same compound?
Answer: 5.15 µM

Question: What about the TGI [34] of the same compound?
Answer: 32.4 µM

Question: And the GI50 [35]?
Answer: 15 µM

Question: And the TGI [35]?
Answer: 44.2 µM

Question: And the GI50 [36]?
Answer: 1.4 µM

Question: And the TGI [36]?
Answer: 6.61 µM

Question: And the GI50 [37]?
Answer: 0.353 µM

Question: What about the TGI [37] of the same compound?
Answer: 11.6 µM

Question: What about the GI50 [38] of the same compound?
Answer: 3.55 µM

Question: And the TGI [38]?
Answer: 25.3 µM

Question: And the GI50 [39]?
Answer: 2.81 µM

Question: And the TGI [39]?
Answer: 47.2 µM

Question: And the GI50 [40]?
Answer: 2.22 µM

Question: And the TGI [40]?
Answer: 8.24 µM

Question: And the GI50 [41]?
Answer: 2.98 µM

Question: What about the TGI [41] of the same compound?
Answer: 21.5 µM

Question: And the GI50 [42]?
Answer: 5.36 µM

Question: What about the TGI [42] of the same compound?
Answer: 64.1 µM

Question: And the GI50 [43]?
Answer: 2.35 µM

Question: And the TGI [43]?
Answer: 31.1 µM

Question: And the GI50 [44]?
Answer: 3.02 µM

Question: What about the TGI [44] of the same compound?
Answer: 27 µM

Question: And the GI50 [45]?
Answer: 9.84 µM

Question: What about the TGI [45] of the same compound?
Answer: 30.2 µM

Question: And the GI50 [46]?
Answer: 5.91 µM

Question: What about the TGI [46] of the same compound?
Answer: 41.9 µM

Question: What about the GI50 [47] of the same compound?
Answer: 4.83 µM

Question: And the TGI [47]?
Answer: 48.2 µM

Question: And the GI50 [48]?
Answer: 4.25 µM

Question: What about the TGI [48] of the same compound?
Answer: 23.8 µM

Question: And the GI50 [49]?
Answer: 6.55 µM

Question: And the TGI [49]?
Answer: 22.3 µM

Question: What about the GI50 [50] of the same compound?
Answer: 6.47 µM

Question: What about the TGI [50] of the same compound?
Answer: > 100 µM

Question: What about the GI50 [51] of the same compound?
Answer: 14.6 µM

Question: And the TGI [51]?
Answer: 41.1 µM

Question: And the GI50 [52]?
Answer: 3.43 µM

Question: And the TGI [52]?
Answer: 13.3 µM

Question: And the GI50 [53]?
Answer: 1.9 µM

Question: And the TGI [53]?
Answer: 16.6 µM

Question: And the GI50 [54]?
Answer: 2.51 µM

Question: And the TGI [54]?
Answer: 13 µM
